Laboratory results as given in article PMC11876601 (Molecular Systems Biology, 2025).
Values joined by “and” are separate entries in the source; they are usually repeats but may differ in a detail not shown here. Equal entries are not always repeated. Where two headings read alike, the source gives them in different places.

Legend:
MAPKAPK5 = test system: MAPKAPK5; design: method as in Reinecke et al. (2023); conditions: MAPKAPK5, 5 cell line mix lysate, Kinobeads ε, ref Reinecke et al. (2023), cited from earlier work
JAK1 = test system: JAK1; design: method as in Reinecke et al. (2023); conditions: JAK1, 5 cell line mix lysate, Kinobeads ε, ref Reinecke et al. (2023), cited from earlier work
NUAK1 = test system: NUAK1; design: method as in Reinecke et al. (2023); conditions: NUAK1, 5 cell line mix lysate, Kinobeads ε, ref Reinecke et al. (2023); cited from earlier work
PDO B250 = experiment: PDO viability assay (CellTiter-Glo, 72 h); assay type: cell-based, human; conditions: for pEC50: single replicates R1-R8
Experimental: (§1) Primary patient-derived PDAC organoid (PDO) experiments were performed in the laboratories of Prof. Maximilian Reichert (University Hospital of the TU Munich, Germany, PDO set 1: B250, B535, B678) and Prof. Jens T. Siveke (University Hospital Essen, Germany; PDO set 2: UME008, UME012, UME051, UME053, UME060, UME061). PDOs were generated from surgical resection, EUS-guided fine needle biopsy (EUS-FNB), or ascites (Appendix Table S2). Surgical specimens were first minced with a sterile scalpel and subsequently washed with Anti-Anti solution and washing medium (PDO set 1), or vice versa (PDO set 2; Appendix Table S3). Biopsy samples were directly washed with an Anti-Anti solution and washing medium. Samples were digested using 1 ml of digestion medium at 37 °C while shaking, and the enzymatic reaction was stopped by adding 15 ml of washing medium (Appendix Table S3). If samples of PDO set 1 were blood-stained, tissue pellets were first incubated with ACK lysing buffer/red blood cells lysis buffer (Thermo Fisher Scientific) for 5 min and then digested using TrypLE (Thermo Fisher Scientific). The reversed procedure was applied for blood-stained samples of PDO set 2. For PDO generation from ascites, the material was first spun down at 500 × g for 5 min. Then, washing medium was added and the suspension was centrifuged at 300 × g for 5 min. If the pellet was blood-stained, ACK lysis buffer was added and incubated at room temperature.
(§2) For viability assays in PDOs, confluent organoids were removed from medium, and Matrigel was dissolved by adding 200 μl (PDO set 1) or 2 ml (PDO set 2) of Cell Recovery Solution (Corning), and additionally 500 μl of DPBS (PDO set 1 only). Samples were transferred into a falcon and incubated on ice for 30 min, followed by centrifugation at 300 × g at 4 °C for 5 min (after adding 10 ml washing medium for PDO set 2). Subsequently, TrypLE Express Enzyme (Thermo Fisher) was added to cell pellets and incubated for 2 × 5 min at 37 °C. The enzymatic reaction was quenched by DPBS (PDO set 1) or washing medium (PDO set 2), and samples were washed by centrifugation at 300 × g at 4 °C for 5 min. Five hundred cells/well were seeded in 384-well plates (Corning) in 50 μl of PDO medium containing 10% Matrigel. To allow PDO generation, cells were incubated for 4 days at 37 °C and 5% CO2. […] Experiments were pipetted manually (PDO set 1) or automatically using a TECAN D300e Digital Dispenser (HP; PDO set 2). Treatments were performed in eight replicates, except for PDO PPES045 (quadruplicates). After 72 h, cell viability was measured using the CellTiter-Glo Luminescent Cell Viability Assay (Promega) diluted 1:5 in the final volume of the well. After 20 min of incubation at room temperature under gentle shaking, the acquisition was performed in the microplate reader VantaSTAR (BMG Labtech) using 3000 gain for the amplification measurement of a detected signal (PDO set 1) or the Spark Multimode microplate reader (TECAN) at 800 ms integration time (PDO set 2).

PDO B535 = experiment: PDO viability assay (CellTiter-Glo, 72 h); assay type: cell-based, human; conditions: for pEC50: single replicates R1-R8
Experimental: as §1, §2

PDO B678 = experiment: PDO viability assay (CellTiter-Glo, 72 h); assay type: cell-based, human
Experimental: as §1, §2

PDO UME008 = experiment: PDO viability assay (CellTiter-Glo, 72 h); assay type: cell-based, human;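 for Curve top: fraction of plate-wise median vehicle signal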
Experimental: as §1, §2

PDO UME060 = experiment: PDO viability assay (CellTiter-Glo, 72 h); assay type: cell-based, human;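 for Curve top: fraction of plate-wise median vehicle signal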
Experimental: as §1, §2

[1] = Experiment GEM (GEM alone), single replicates R1-R8, read-out: EC50
[2] = Experiment GEM+ATRi_dose1 (ATRi = Elimusertib)
[3] = Experiment GEM+ATRi_dose1 (ATRi = Elimusertib), single replicates R1-R8, read-out: EC50
[4] = Homo sapiens, Experiment GEM (GEM alone), mean of replicates, read-out: EC50 mean
[5] = Homo sapiens, Experiment GEM+ATRi_dose1 (ATRi = Elimusertib), mean of replicates, read-out: EC50 mean
[6] = Homo sapiens, Experiment GEM+ATRi_dose2 (ATRi = Elimusertib), mean of replicates, read-out: EC50 mean
[7] = Homo sapiens, GEM alone, read-out: EC50 mean
[8] = Homo sapiens, Experiment GEM+ATRi_dose3 (ATRi = Elimusertib), mean of replicates, read-out: EC50 mean
[9] = PDO UME008, GEM + Elimusertib (ATRi) dose1, per replicate
[10] = PDO UME008, GEM + Elimusertib (ATRi) dose2, per replicate
[11] = PDO UME008, GEM + Elimusertib (ATRi) dose3, per replicate
[12] = PDO UME008, GEM alone, per replicate

COc1cc(N2CCC(N3CCN(C)CC3)CC2)ccc1Nc1ncc(Cl)c(Nc2ccccc2P(C)(C)=O)n1 [Brigatinib]
EC50 (MAPKAPK5): 62.7 nM
pKDapp (MAPKAPK5): 7.23
Kd (MAPKAPK5; read-out: KDapp): 58.3 nM
EC50 (JAK1): 373 nM
pKDapp (JAK1): 6.86
Kd (JAK1; read-out: KDapp): 139 nM
EC50 (NUAK1): 532 nM

Nc1ccn([C@@H]2O[C@H](CO)[C@@H](O)C2(F)F)c(=O)n1 [GEM, Gemcitabine]
pEC50 (PDO B250; Experiment GEM (GEM alone)): 6.73 and 6.37 and 6.71 and 6.62 and 6.75 and 6.40 and 6.58 and 6.41
EC50 (PDO B250; [1]): 185 nM and 427 nM and 194 nM and 239 nM and 177 nM and 398 nM and 263 nM and 393 nM
pEC50 (PDO B250; [2]): 6.29 and 6.41 and 6.85 and 6.58 and 6.87 and 7.26 and 6.73 and 6.74
EC50 (PDO B250; [3]): 516 nM and 389 nM and 140 nM and 262 nM and 135 nM and 54.9 nM and 185 nM and 183 nM
EC50 (PDO B250; [4]): 284 nM
EC50 (PDO B250; [5]): 233 nM
EC50 (PDO B250; [6]): 265 nM
EC50 (PDO B250; [7]): 284 nM
pEC50 (PDO B535; Experiment GEM (GEM alone)): 8.39 and 8.78 and 8.35 and 8.91
EC50 (PDO B535; [1]): 4.05 nM and 1.64 nM and 2.44 nM and 4.43 nM and 1.23 nM
pEC50 (PDO B535; [2]): 8.24 and 8.20 and 8.63 and 8.99 and 8.75 and 8.16
EC50 (PDO B535; [3]): 5.81 nM and 6.33 nM and 3.06 nM and 2.33 nM and 1.02 nM and 1.78 nM and 6.97 nM
pEC50 (PDO B535; Experiment GEM+ATRi_dose3 (ATRi = Elimusertib)): 9.08 and 8.91 and 9.48 and 9.75 and 9.91 and 9.06
EC50 (PDO B535; [5]): 3.9 nM
EC50 (PDO B535; [8]): 0.59 nM
pEC50 (PDO B678; Experiment GEM+ATRi_dose1 (ATRi = Elimusertib), single replicates R1-R8): 6.49 and 6.68 and 7.12 and 6.42 and 6.56 and 6.26
EC50 (PDO B678; [3]): 321 nM and 209 nM and 76.6 nM and 382 nM and 273 nM and 548 nM and 379 nM
EC50 (PDO B678; [4]): 247 nM
EC50 (PDO B678; [5]): 313 nM
EC50 (PDO B678; [6]): 156 nM
EC50 (PDO B678; [8]): 209 nM
EC50 (PDO B678; [7]): 247 nM
EC50 (PDO UME008; Homo sapiens, PDO UME008, GEM + Elimusertib (ATRi) dose1, mean of replicates, read-out: EC50 mean): 5.72 nM
EC50 (PDO UME008; Homo sapiens, PDO UME008, GEM + Elimusertib (ATRi) dose1, per replicate, read-out: EC50): 5.99 nM
EC50 (PDO UME008; Homo sapiens, PDO UME008, GEM + Elimusertib (ATRi) dose1, per replicate, read-out: pEC50 (converted)): 6.03 nM
EC50 (PDO UME008; Homo sapiens, PDO UME008, GEM alone, mean of replicates, read-out: EC50 mean): 26.4 nM
EC50 (PDO UME008; Homo sapiens, PDO UME008, GEM alone, read-out: EC50 mean): 26.4 nM
EC50 (PDO UME008; Homo sapiens, SET-2, PDO UME008 (PDO set 2), Experiment GEM (GEM alone), mean of replicates, read-out: EC50 mean): 26.4 nM
EC50 (PDO UME008; Homo sapiens, SET-2, PDO UME008 (PDO set 2), Experiment GEM (GEM alone), single replicates, read-out: EC50): 35.3 nM
EC50 (PDO UME008; Homo sapiens, SET-2, PDO UME008 (PDO set 2), Experiment GEM (GEM alone), single replicates, read-out: pEC50 (converted)): 35.5 nM
EC50 (PDO UME008; Homo sapiens, SET-2, PDO UME008 (PDO set 2), Experiment GEM+ATRi_dose1 (ATRi = Elimusertib), mean of replicates, read-out: EC50 mean): 5.72 nM
EC50 (PDO UME008; Homo sapiens, SET-2, PDO UME008 (PDO set 2), Experiment GEM+ATRi_dose1 (ATRi = Elimusertib), single replicates, read-out: EC50): 4.47 nM
EC50 (PDO UME008; Homo sapiens, SET-2, PDO UME008 (PDO set 2), Experiment GEM+ATRi_dose1 (ATRi = Elimusertib), single replicates, read-out: pEC50 (converted)): 4.47 nM
Curve slope (PDO UME008; [9]): 0.15 and 0.09 and 0.06 and 0.14 and 0.13 and 0.10 and 0.08
Curve top (PDO UME008; [9]): 0.83 and 1.39 and 1.43 and 1.58
pEC50 (PDO UME008; [9]): 8.33 and 8.31 and 8.10 and 8.30 and 8.17
EC50 (PDO UME008; PDO UME008, GEM + Elimusertib (ATRi) dose1, per replicate, read-out: EC50): 4.68 nM and 4.87 nM and 6.08 nM and 7.93 nM and 4.97 nM and 6.77 nM
Curve slope (PDO UME008; [10]): 0.07 and 0.08 and 0.13 and 0.0742 and 0.12
Curve top (PDO UME008; [10]): 1.01 and 1.56 and 1.34 and 1.60 and 1.61 and 1.89
pEC50 (PDO UME008; [10]): 8.24 and 8.33 and 8.77
EC50 (PDO UME008; PDO UME008, GEM + Elimusertib (ATRi) dose2, per replicate, read-out: EC50): 5.77 nM and 3.11 nM and 4.73 nM and 1.69 nM
Curve slope (PDO UME008; [11]): 0.10 and 0.07 and 0.08 and 0.0752 and 0.11 and 0.09
Curve top (PDO UME008; [11]): 1.25 and 0.88 and 1.26
pEC50 (PDO UME008; [11]): 8.27 and 8.67 and 8.63 and 8.23 and 8.28
EC50 (PDO UME008; PDO UME008, GEM + Elimusertib (ATRi) dose3, per replicate, read-out: EC50): 2.48 nM and 5.32 nM and 2.13 nM and 3.3 nM and 2.33 nM and 5.9 nM and 5.31 nM
Curve slope (PDO UME008; [12]): 0.43 and 0.44 and 0.47 and 0.36 and 0.39
Curve top (PDO UME008; [12]): 0.95 and 1.46
pEC50 (PDO UME008; [12]): 7.56 and 8.15 and 7.44 and 7.69 and 7.32 and 8.00
EC50 (PDO UME008; PDO UME008, GEM alone, per replicate, read-out: EC50): 27.4 nM and 7.09 nM and 36.6 nM and 20.4 nM and 48 nM and 10.1 nM
EC50 (PDO UME060; Homo sapiens, PDO UME060, GEM alone, read-out: EC50 mean): 23.4 nM
EC50 (PDO UME060; Homo sapiens, PDO UME060, experiment GEM (GEM alone), mean of replicates, read-out: EC50 mean): 23.4 nM
EC50 (PDO UME060; PDO UME060, PDO set 2, experiment GEM (GEM alone), single replicates, read-out: EC50): 31.8 nM and 30.4 nM and 22.2 nM and 14.8 nM and 21.8 nM and 39.5 nM and 17.7 nM and 9.22 nM
Curve top (PDO UME060; PDO UME060, experiment GEM (GEM alone), curve fit): 1.00 and 0.88 and 1.04 and 0.95 and 1.07 and 0.83 and 1.30
pEC50 (PDO UME060; PDO UME060, experiment GEM (GEM alone), single replicates): 7.50 and 7.52 and 7.65 and 7.83 and 7.66 and 7.40 and 7.75 and 8.04
